Series [1] relates to Raji. The series can be described thus: Inhibition of TPA-induced EBV early antigen activation in human Raji cells at 500 molar relative to TPA; values are per cent of control. To be noted: human gammaherpesvirus 4.
The subject of series [2] is Raji. The experiment in a line: Inhibition of TPA-induced EBV early antigen activation in human Raji cells at 1000 molar relative to TPA; values are per cent of control. Conditions: human gammaherpesvirus 4.
Series [3] is described as follows: Cytotoxicity against human CRL1579 cells after 48 hrs by MTT assay. It counts as functional, cell-based. On the technique in general: Tetrazolium assays rely on reduction of a dye to a coloured formazan, in cell work by metabolically active cells.
Series [4] relates to Raji. The series can be described thus: Inhibition of TPA-induced EBV early antigen activation in human Raji cells at 10 molar ratio relative to TPA; values are per cent of control. Conditions: human gammaherpesvirus 4.
Series [5] concerns Raji. The experiment in a line: Inhibition of TPA-induced EBV early antigen activation in human Raji cells at 100 molar relative to TPA; values are per cent of control. Conditions: human gammaherpesvirus 4.
A short description of series [6]: Cytotoxicity against human Raji cells assessed as cell viability at 1000 molar ratio. It counts as cell-based. Conditions: read-out: INH.
Series [7] relates to HL-60. The experiment in a line: Cytotoxicity against human HL60 cells after 48 hrs by MTT assay. It counts as functional, cell-based. Conditions: HL-60, 48 h.
Series [8] is described as follows: Inhibition of TPA-induced EBV early antigen activation in human Raji cells relative to TPA. Type of series: cell-based, human gammaherpesvirus 4.
The species named for series [9] is Mus musculus. The series can be described thus: Inhibition of DMBA-induced/TPA-promoted carcinogenesis in ICR mouse assessed as reduction of skin papillomas measured after 11 weeks relative to TPA. Type of series: functional.
For series [10], the species on record is Mus musculus. The series can be described thus: Inhibition of DMBA-induced/TPA-promoted carcinogenesis in ICR mouse assessed as reduction of skin papillomas measured after 20 weeks relative to TPA. It counts as functional.

The structures appear in SMILES notation.

Regarding `C=C(CC[C@@H](C(=O)O)[C@H]1[C@H](O)C[C@@]2(C)C3=C(CC[C@]12C)[C@@]1(C)CCC(=O)C(C)(C)[C@@H]1CC3)C(C)(C)O`, the level, % of control in series [1] was determined as 36.1%; in [2], 0%; in [4] it was 96.1%; in series [5] it was 72.2%. Besides, the IC50 in series [3] was 28.7 µM; in series [7], 84.7 µM; in series [8], 299 molar ratio. The viability at 1000 molar ratio in series [6] amounted to 70%.

On to `C=C(CC[C@@H](C(=O)O)[C@H]1[C@H](O)C[C@@]2(C)C3=C(CC[C@]12C)[C@@]1(C)CCC(=O)C(C)(C)[C@@H]1CC3)C(C)C`, for which the level, % of control in [1] worked out at 28.3%; in series [2], 2.2%; in [4] it was 96.4%; in series [5], 70.3%. The IC50 was above 100 µM in series [3], above 100 µM in series [7] and 348 molar ratio in series [8]. Moreover, the viability at 1000 molar ratio in [6] was 70%.

Consider `C=C(CC[C@@H](C(=O)O)[C@H]1[C@H](O)C[C@@]2(C)[C@]34C=C[C@@]5(OO3)C(C)(C)[C@@H](O)CC[C@]5(C)C4=CC[C@]12C)C(C)C`, for which the IC50 in series [3] and in series [7] was above 100 µM in each case.

With `C=C(C)[C@@H]1CC=C2C(=CC[C@]3(C)[C@@H]([C@@H](CCC(=C)C(C)(O)CO)C(=O)O)[C@H](O)C[C@@]23C)[C@@]1(C)CCC(=O)OC` (stereo partly specified), the level, % of control in [1] is 14.1%; in [2], 0%; in series [4], 80.2%; in [5], 55.3%. Besides, the IC50 in [3] is 98.4 µM; in series [7], 94.6 µM; in series [8] it was 187 molar ratio. Further, the viability at 1000 molar ratio in series [6] is 70%.

Consider `C=C(CC[C@@H](C(=O)O)[C@H]1[C@H](O)C[C@@]2(C)C3=CC[C@H]4C(C)(C)[C@H](O)CC[C@]4(C)C3=CC[C@]12C)C(C)(C)O`, for which the IC50 in [3] worked out at 84 µM; in [7], 29.4 µM.

Turning to `CC(C)(O)c1ccc2c(c1)C(=O)C[C@H]1[C@](C)(C(=O)O)CCC[C@]21C`, the level, % of control in series [1] turned out to be 19.5%; in [2], 0%; in series [4], 93.4%; in series [5], 69.1%. Moreover, the IC50 is above 100 µM in [3], above 100 µM in series [7] and 238 molar ratio in [8]. Moreover, the viability at 1000 molar ratio in series [6] turned out to be 60%.

Take `C=C(CC[C@@H](C(=O)O)[C@H]1[C@H](O)C[C@@]2(C)C3=C(CC[C@]12C)[C@@](C)(CCC(=O)O)[C@H](C(=C)C)C=C3)C(C)C` [6,7-DEHYDROPORICOIC ACID H]: the level, % of control was 15.2% in [1], 0% in series [2], 80.9% in series [4] and 56% in series [5]. In addition, the IC50 in series [3] is above 100 µM; in [7], above 100 µM; in [8] it was 193 molar ratio. The viability at 1000 molar ratio in series [6] was 70%.

In the case of `C=C(C)[C@@H]1CC=C2C(=CC[C@]3(C)[C@@H]([C@@H](CCC(=C)C(C)(C)O)C(=O)O)CC[C@@]23C)[C@@]1(C)CCC(=O)O` [25-HYDROXYPORICOIC ACID C], the level, % of control in series [1] amounted to 16.2%; in [2], 0%; in series [4], 83.1%; in [5], 57.1%. Also, the IC50 in [3] came out at 92.7 µM; in series [7], 30.8 µM; in series [8], 201 molar ratio. The viability at 1000 molar ratio in series [6] came to 70%.

On to `C=C(C)[C@@H]1CC=C2C(=CC[C@]3(C)[C@@H]([C@@H](CCC(=C)C(C)(C)OC)C(=O)O)[C@H](O)C[C@@]23C)[C@@]1(C)CCC(=O)O` [25-METHOXYPORICOIC ACID A], for which the level, % of control in [1] turned out to be 17.8%; in series [2], 0%; in series [4] it was 84.4%; in [5], 58.2%. Moreover, the “inhibition (INH)” value in series [9] is given as 20%; in [10], 80%. The IC50 was above 100 µM in [3], above 100 µM in series [7] and 268 molar ratio in series [8]. For the same molecule, in series [6], the viability at 1000 molar ratio came to 70%.

With `CC1=C(/C=C/C(C)=C/C=C/C(C)=C/C=C/C=C(C)/C=C/C=C(C)/C=C/C2=C(C)CCCC2(C)C)C(C)(C)CCC1` [BETA CAROTENE], the level, % of control in [1] is 34.2%; in [2], 8.6%; in [4], 100%; in series [5] it was 82.1%. For the same molecule, in series [8], the IC50 was found to be 397 molar ratio.

In the case of `C=C(CC[C@@H](C(=O)O)[C@H]1[C@H](O)C[C@@]2(C)C3=CC[C@@H](C(=C)C)[C@](C)(CCC(=O)OC)C3=CC[C@]12C)C(C)C` [PORICOIC ACID AM], the IC50 in series [3] was 88.9 µM; in [7], 15.9 µM.

Turning to `C=C(CC[C@@H](C(=O)O)[C@H]1[C@H](O)C[C@@]2(C)C3=CC[C@@H](C(=C)C)[C@](C)(CCC(=O)O)C3=CC[C@]12C)C(C)C` [PORICOIC ACID A], the IC50 in series [3] is above 100 µM; in [7], 38 µM.

In the case of `C=C(C)[C@@H]1CC=C2C(=CC[C@]3(C)[C@@H]([C@@H](CCC=C(C)C)C(=O)O)[C@H](O)C[C@@]23C)[C@@]1(C)CCC(=O)O` [PORICOIC ACID B], the IC50 in series [3] and in series [7] was above 100 µM each time.

Consider `C=C(C)[C@@H]1CC=C2C(=CC[C@]3(C)[C@@H]([C@@H](CCC(=C)C(C)(C)O)C(=O)O)[C@H](O)C[C@@]23C)[C@@]1(C)CCC(=O)OC` [PORICOIC ACID DM], for which the IC50 in series [3] and in [7] was above 100 µM in each case.

On to `C=C(C)[C@@H]1CCC2=C(CC[C@]3(C)[C@@H]([C@@H](CCC=C(C)C)C(=O)O)[C@H](O)C[C@@]23C)[C@@]1(C)CCC(=O)OC` [PORICOIC ACID GM], for which the level, % of control in [1] was determined as 19.9%; in series [2], 0%; in [4], 86.4%; in series [5] it was 60.1%. In addition, the viability at 1000 molar ratio in series [6] was found to be 70%. The molecule further showed an IC50 in series [8] of 216 molar ratio.

As for `C=C(C)[C@@H]1CCC2=C(CC[C@]3(C)[C@@H]([C@@H](CCC=C(C)C)C(=O)O)[C@H](O)C[C@@]23C)[C@@]1(C)CCC(=O)O` [PORICOIC ACID G], the IC50 is above 100 µM in series [3] and 32.6 µM in series [7].

`C=C(CC[C@@H](C(=O)O)[C@H]1[C@H](O)C[C@@]2(C)C3=C(CC[C@]12C)[C@@](C)(CCC(=O)OC)[C@H](C(=C)C)CC3)C(C)C` [PORICOIC ACID HM]: the level, % of control in series [1] was 20.3%; in series [2], 0%; in series [4], 87.5%; in series [5], 61.3%. Also, the viability at 1000 molar ratio in [6] came to 70%. Also, the IC50 in series [8] worked out at 219 molar ratio.

On to `C=C(CC[C@@H](C(=O)O)[C@H]1[C@H](O)C[C@@]2(C)C3=C(CC[C@]12C)[C@@](C)(CCC(=O)O)[C@H](C(=C)C)CC3)C(C)C` [PORICOIC ACID H], for which the results for the IC50 in [3] and in series [7] were above 100 µM and 28.4 µM, respectively.

The values are drawn from ChEMBL document CHEMBL1154271, “Anti-tumor-promoting effects of 25-methoxyporicoic acid A and other triterpene acids from Poria cocos” (J Nat Prod, 2009).
